Experimental data taken from the supplement of paper PMC10307832.

Legend:
Experiment in all cases: relative viability (nuclei count vs DMSO), 5 days (fraction); higher = more cells survive
[1] = compound: C[C@@]1(C(=O)Nc2ccc(F)nc2)CCCN1c1nc(Nc2cc(C3CC3)n[nH]2)c2cccn2n1 + Cc1nc(Nc2ncc(C(=O)Nc3c(C)cccc3Cl)s2)cc(N2CCN(CCO)CC2)n1 [Dasatinib] (partner 0.075 µM)
Outline: (§1)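 Dosing by pin tool came one day after lung cancer cell lines were seeded in 1536-well plates, using either one drug or a fixed anchor-drug dose plus five library-drug doses (not always all listed) in √10 steps. After 5 days, nuclei were counted on 4× images. Relative viability is treated-well nuclei count divided by vehicle-well nuclei count, and values are medians of duplicate plates.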

Motesanib + Decitabine = compound: CC1(C)CNc2cc(NC(=O)c3cccnc3NCc3ccncc3)ccc21 [Motesanib] + Nc1ncn([C@H]2C[C@H](O)[C@@H](CO)O2)c(=O)n1 [Decitabine] (partner 2 µM)
Outline: as §1

[2] = compound: C[C@@]1(C(=O)Nc2ccc(F)nc2)CCCN1c1nc(Nc2cc(C3CC3)n[nH]2)c2cccn2n1 + CCNC(=O)c1noc(-c2cc(C(C)C)c(O)cc2O)c1-c1ccc(CN2CCOCC2)cc1 [Luminespib] (partner 0.01 µM)
Outline: as §1

Motesanib + Bortezomib = compound: CC1(C)CNc2cc(NC(=O)c3cccnc3NCc3ccncc3)ccc21 [Motesanib] + CC(C)C[C@H](NC(=O)[C@H](Cc1ccccc1)NC(=O)c1cnccn1)B(O)O [Bortezomib] (partner 0.002 µM)
Outline: as §1

| Cell Line | relative viability ([1]; first compound 0.04 µM) | relative viability ([1]; first compound 0.1265 µM) | relative viability ([1]; first compound 0.4 µM) | relative viability ([1]; first compound 1.265 µM) | relative viability (Motesanib + Decitabine; first compound 0.01 µM) | relative viability (Motesanib + Decitabine; first compound 0.03162 µM) | relative viability (Motesanib + Decitabine; first compound 0.1 µM) | relative viability (Motesanib + Decitabine; first compound 0.3162 µM) | relative viability (Motesanib + Decitabine; first compound 1 µM) | relative viability ([2]; first compound 0.04 µM) | relative viability ([2]; first compound 0.1265 µM) | relative viability ([2]; first compound 0.4 µM) | relative viability ([2]; first compound 1.265 µM) | relative viability (Motesanib + Bortezomib; first compound 0.01 µM) | relative viability (Motesanib + Bortezomib; first compound 0.03162 µM) | relative viability (Motesanib + Bortezomib; first compound 0.1 µM) | relative viability (Motesanib + Bortezomib; first compound 0.3162 µM) | relative viability (Motesanib + Bortezomib; first compound 1 µM) |
| --- | --- | --- | --- | --- | --- | --- | --- | --- | --- | --- | --- | --- | --- | --- | --- | --- | --- | --- |
| NCI-H1437 | 0.218 | 0.236 | 0.223 | 0.125 | 0.596 | 0.544 | 0.58 | 0.548 | 0.629 | 1.18 | 1.19 | 1.01 | 1.02 | 0.368 | 0.525 | 0.434 | 0.626 | 0.615 |
| NCI-H1650 | 0.313 | 0.266 | 0.249 | 0.144 | 0.53 | 0.352 | 0.445 | 0.546 | 0.564 | 0.215 | 0.194 | 0.199 | 0.181 | 0.204 | – | 0.191 | 0.185 | 0.207 |
| NCI-H1651 | 0.309 | 0.33 | 0.185 | 0.231 | 0.591 | 0.751 | 0.661 | 0.585 | 0.731 | 0.916 | 0.715 | 0.768 | 0.71 | 0.914 | 0.883 | 0.932 | 0.873 | 0.929 |
| NCI-H1666 | 0.709 | 0.613 | 0.486 | 0.412 | 0.67 | 0.748 | 0.885 | 0.762 | 0.813 | 0.915 | 0.932 | 0.825 | 0.812 | 0.845 | 0.766 | 0.816 | 0.77 | 0.862 |
| NCI-H1734 | 0.345 | 0.296 | 0.29 | 0.185 | 0.51 | 0.675 | 0.695 | 0.613 | 0.869 | 0.201 | 0.161 | 0.159 | 0.157 | 1 | 0.929 | 1.01 | 0.918 | 1.09 |
| NCI-H1755 | 0.29 | 0.262 | 0.241 | 0.171 | 0.775 | 0.838 | 0.864 | 0.905 | 0.913 | 0.616 | 0.357 | 0.406 | 0.437 | 0.927 | 0.957 | 1.06 | 0.988 | 1.02 |
| NCI-H1792 | 0.283 | 1.06 | 0.211 | 0.227 | 0.48 | 0.642 | 0.594 | 0.657 | 0.878 | 0.344 | 0.653 | 0.243 | 0.292 | 0.931 | 0.737 | 0.976 | 1.04 | 1.03 |
| NCI-H1915 | 0.302 | 0.3 | 0.288 | 0.268 | 0.272 | 0.262 | 0.36 | 0.306 | 0.383 | 0.816 | 0.736 | 0.781 | 0.862 | 0.959 | 0.929 | 0.936 | 0.98 | 0.989 |
| NCI-H1975 | 0.263 | 0.306 | 0.181 | 0.154 | 0.364 | 0.459 | 0.406 | 0.487 | 0.426 | 0.272 | 0.117 | 0.128 | 0.187 | 0.378 | 0.406 | 0.326 | 0.391 | 0.369 |
